Measurements reported in patent publication US11623932B2, “Protein degraders and uses thereof” (Kymera Therapeutics, Inc., priority 2017, dated 2023).

Columns and labels:
[1] = biological target: Untagged CRBN-DDB1 complex (Homo sapiens (Human), UniProt Q96SW2); test: Fluorescence polarization (FP) assay, displacement of Cy5-labeled thalidomide; assay type: binding; conditions: Cy5-labeled thalidomide 20 nM, 10 min at room temperature
Protocol: The final solution contained 50 mM HEPES, 200 mM NaCl and 2 mM DTT, pH 7.5. The mixtures were incubated at room temperature for 10 min. The FP signals were recorded on an EnVision plate reader (Perkin Elmer) using the following settings: Excitation Light (%): 100; Measurement Height: 12; G-Factor: 1; Detector Gain 1: 500; Detector Gain 2: 500; Flash Number: 100. Dose-dependent loss of FP signals was fitted by four-parameter Logistic Function using GraphPad Prism 7.0 and the IC50 values were reported for each compound.
The compound numbers correspond to the compound numbers in the examples.

BRD4 = BRD4 (Homo sapiens (Human), UniProt O60885); test: BRD4 degradation in NAMALWA cells, Western Blot; assay type: cell-based; conditions: 2 h

Untagged CRBN-DDB1 complex, sequence (Q96SW2 whole entry): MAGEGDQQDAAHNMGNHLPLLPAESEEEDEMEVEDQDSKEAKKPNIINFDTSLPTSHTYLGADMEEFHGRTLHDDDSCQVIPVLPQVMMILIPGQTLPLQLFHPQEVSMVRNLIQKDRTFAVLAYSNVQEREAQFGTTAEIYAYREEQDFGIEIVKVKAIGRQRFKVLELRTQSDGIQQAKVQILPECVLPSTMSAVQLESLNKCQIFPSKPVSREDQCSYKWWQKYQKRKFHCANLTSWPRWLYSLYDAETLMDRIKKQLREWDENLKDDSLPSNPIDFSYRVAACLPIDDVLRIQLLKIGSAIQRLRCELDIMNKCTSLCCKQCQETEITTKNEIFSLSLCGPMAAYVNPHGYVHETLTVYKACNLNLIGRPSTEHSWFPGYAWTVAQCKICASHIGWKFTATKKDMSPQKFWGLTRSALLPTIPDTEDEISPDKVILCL
Untagged CRBN-DDB1 complex, sequence (Q16531 whole entry partner): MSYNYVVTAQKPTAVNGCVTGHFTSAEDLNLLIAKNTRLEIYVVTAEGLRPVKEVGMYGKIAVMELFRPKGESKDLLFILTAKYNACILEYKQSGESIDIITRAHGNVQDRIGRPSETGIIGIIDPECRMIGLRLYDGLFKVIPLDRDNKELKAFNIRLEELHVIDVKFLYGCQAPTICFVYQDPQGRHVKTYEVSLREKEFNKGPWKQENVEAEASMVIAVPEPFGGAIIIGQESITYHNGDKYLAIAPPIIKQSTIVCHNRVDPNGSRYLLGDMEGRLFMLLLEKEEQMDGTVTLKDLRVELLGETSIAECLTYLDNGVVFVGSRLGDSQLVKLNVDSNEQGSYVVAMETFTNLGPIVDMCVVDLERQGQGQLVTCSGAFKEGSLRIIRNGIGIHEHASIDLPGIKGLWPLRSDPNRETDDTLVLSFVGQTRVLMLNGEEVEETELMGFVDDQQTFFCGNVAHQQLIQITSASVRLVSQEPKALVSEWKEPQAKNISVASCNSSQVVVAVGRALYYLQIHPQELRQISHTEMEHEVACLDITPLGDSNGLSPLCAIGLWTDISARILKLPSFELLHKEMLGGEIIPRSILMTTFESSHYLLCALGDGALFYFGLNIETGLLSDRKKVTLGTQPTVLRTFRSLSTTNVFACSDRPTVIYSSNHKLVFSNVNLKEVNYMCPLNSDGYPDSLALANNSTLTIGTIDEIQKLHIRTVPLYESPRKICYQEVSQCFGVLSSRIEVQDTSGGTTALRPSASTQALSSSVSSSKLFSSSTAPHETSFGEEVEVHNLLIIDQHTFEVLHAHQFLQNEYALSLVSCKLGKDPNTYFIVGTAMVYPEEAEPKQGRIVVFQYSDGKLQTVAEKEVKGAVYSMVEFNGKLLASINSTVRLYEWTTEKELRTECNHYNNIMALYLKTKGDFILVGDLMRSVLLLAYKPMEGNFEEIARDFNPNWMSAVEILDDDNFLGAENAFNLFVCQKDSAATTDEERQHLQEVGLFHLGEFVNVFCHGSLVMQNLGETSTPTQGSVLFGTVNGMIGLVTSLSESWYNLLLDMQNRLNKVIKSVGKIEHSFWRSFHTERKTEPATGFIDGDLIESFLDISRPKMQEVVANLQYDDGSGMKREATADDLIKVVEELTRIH

Row | Compound | IC50 [1] | % BRD4 degradation (BRD4; 0.0003 uM) | % BRD4 degradation (BRD4; 0.001 uM) | % BRD4 degradation (BRD4; 0.003 uM) | % BRD4 degradation (BRD4; 0.01 uM) | % BRD4 degradation (BRD4; 0.03 uM) | % BRD4 degradation (BRD4; 0.1 uM) | % BRD4 degradation (BRD4; 0.3 uM) | % BRD4 degradation (BRD4; 1 uM)
1 | O=C1CCC(N2C(=O)Cc3ccccc32)C(=O)N1 (stereo not drawn) [Compound 3, 3-(2-Oxo-2,3-dihydro-1H-indol-1-yl)piperidine-2,6-dione] | > 100 µM | – | – | – | – | – | – | – | –
2 | Cc1sc2c(c1C)C(c1ccc(Cl)cc1)=N[C@@H](CC(=O)NCCOCCOCCCc1ccc3c(c1)n(C)c(=O)n3C1CCC(=O)NC1=O)c1nnc(C)n1-2 (stereo partly drawn) [Compound I-35, 2-((S)-4-(4-chlorophenyl)-2,3,9-trimethyl-6H-thieno[3,2-f][1,2,4]triazolo[4,3-a][1,4]diazepin-6-yl)-N-(2-(2-(3-(1-(2,6-dioxopiperidin-3-yl)-3-methyl-2-oxo-2,3-dihydro-1H-benzo[d]imidazol-5-yl)propoxy)ethoxy)ethyl)acetamide] | – | B (60 to 80 percent protein degradation) | A (greater than 80 percent protein degradation) | A (greater than 80 percent protein degradation) | A (greater than 80 percent protein degradation) | A (greater than 80 percent protein degradation) | A (greater than 80 percent protein degradation) | A (greater than 80 percent protein degradation) | A (greater than 80 percent protein degradation)
3 | Cc1sc2c(c1C)C(c1ccc(Cl)cc1)=N[C@@H](CC(=O)NCCOCCOCCCc1cccc3c1n(C)c(=O)n3C1CCC(=O)NC1=O)c1nnc(C)n1-2 (stereo partly drawn) [Compound I-36, 2-((S)-4-(4-chlorophenyl)-2,3,9-trimethyl-6H-thieno[3,2-f][1,2,4]triazolo[4,3-a][1,4]diazepin-6-yl)-N-(2-(2-(3-(1-(2,6-dioxopiperidin-3-yl)-3-methyl-2-oxo-2,3-dihydro-1H-benzo[d]imidazol-4-yl)propoxy)ethoxy)ethyl)acetamide] | – | C (40 to 60 percent protein degradation) | C (40 to 60 percent protein degradation) | C (40 to 60 percent protein degradation) | C (40 to 60 percent protein degradation) | B (60 to 80 percent protein degradation) | B (60 to 80 percent protein degradation) | B (60 to 80 percent protein degradation) | B (60 to 80 percent protein degradation)
4 | Cc1sc2c(c1C)C(c1ccc(Cl)cc1)=N[C@@H](CC(=O)NCCOCCOCCOCCn1c(=O)n(C3CCC(=O)NC3=O)c3ccccc31)c1nnc(C)n1-2 (stereo partly drawn) [Compound I-37, 2-((S)-4-(4-Chlorophenyl)-2,3,9-trimethyl-6H-thieno[3,2-f][1,2,4]triazolo[4,3-a][1,4]diazepin-6-yl)-N-(2-(2-(2-(2-(3-(2,6-dioxopiperidin-3-yl)-2-oxo-2,3-dihydro-1H-benzo[d]imidazol-1-yl)ethoxy)ethoxy)ethoxy)ethyl)acetamide] | – | B (60 to 80 percent protein degradation) | B (60 to 80 percent protein degradation) | A (greater than 80 percent protein degradation) | A (greater than 80 percent protein degradation) | A (greater than 80 percent protein degradation) | A (greater than 80 percent protein degradation) | A (greater than 80 percent protein degradation) | A (greater than 80 percent protein degradation)
5 | Cc1sc2c(c1C)C(c1ccc(Cl)cc1)=N[C@@H](CC(=O)NCCOCCOCCn1c(=O)n(C3CCC(=O)NC3=O)c3ccccc31)c1nnc(C)n1-2 (stereo partly drawn) [Compound I-38, 2-((S)-4-(4-chlorophenyl)-2,3,9-trimethyl-6H-thieno[3,2-f][1,2,4]triazolo[4,3-a][1,4]diazepin-6-yl)-N-(2-(2-(2-(3-(2,6-dioxopiperidin-3-yl)-2-oxo-2,3-dihydro-1H-benzo[d]imidazol-1-yl)ethoxy)ethoxy)ethyl)acetamide] | – | D (less than 40 percent protein degradation) | B (60 to 80 percent protein degradation) | A (greater than 80 percent protein degradation) | A (greater than 80 percent protein degradation) | A (greater than 80 percent protein degradation) | A (greater than 80 percent protein degradation) | A (greater than 80 percent protein degradation) | A (greater than 80 percent protein degradation)
